In general, IC50 refers to the point on the concentration scale where inhibition reaches its midpoint. The low end stands for higher potency, the high end for lower potency.

In experiment [1] the test system is human prostate cancer cell lines. Briefly: In vitro growth of human prostate cancer cell lines. It is filed as cell-based. To be noted: CWR22Rv1, 3 of the 4 lines (FIGS. 48A-48C: BCap-1, LgCap-1, CWR-22Rv1). An excerpt: Prostate Cancer Models. The source, history, and characteristics of the human prostate cancer cell lines and PDXs used, as well as cell culture conditions for their in vitro maintenance and the in vivo protocol for xenograft growth in triple immune-deficient NSG (i.e. NOD.Cg-PrkdcScidIl2rgtmlWji/Szj), adult (>8 week old) male mice obtained from the Sidney Kimmel Comprehensive Cancer Center (SKCCC) Animal Core Facility are described previously (Isaacs 2013; Brennen et al. JCI Insight. 2021, 6(8):e146827; Zhu et al. Oncogene 2020, 39(45): 6935-6949). […] In vitro growth curves were determined as described (Isaacs 2013). In vivo growth response to oral daily TasQ (10 mg/kg/d) of TRAMP-C2 mouse prostate cancers was evaluated in C57BL/6J syngeneic wild type vs. NOX-2 vs. iNOS null male mice obtained from Jackson Laboratory (Bar Harbor, ME). Growth response to oral daily TasQ (10 mg/kg/d) of TRAMP-C2 and B6CaP mouse prostate cancers was also evaluated in S100A9 null C57BL′6J male mice obtained from Dmitry Gabrilovich (Wistar Institute). […] In vitro growth curves were determined as described (Isaacs 2013). Growth response to daily oral TasQ vs. ESATA-20 (both at 10 mg/kg/d) of Myc-CaP-CR mouse prostate cancer was evaluated in syngeneic FVB/NJ castrate male mice from Jackson Laboratory. […]

The subject of another experiment is HUVEC. Kind of experiment: mRNA expression of HUVEC in 3D-fibrin gels with HDF-conditioned media. Type of experiment: cell-based, human. To be noted: Fibroblast Conditioned Media: Yes, TasQ (10 μM): Yes. The protocol:
Three Dimensional (3D) Endothelial Sprouting Assay. The assay was performed using a minimum of 3 replicate wells of a 48 well tissue culture plate per drug dose per experiment, repeated 3 independent times in which human umbilical vein endothelial cells (HUVECs) obtained from Lonza Walkersville Inc (Walkersville, MD) attached to gelatin-coated dextran microcarrier bead are embedded in a fibrin matrix as described previously (Brennen et al. Oncotarget 7, 71298-71308 (2016)).
Besides its therapeutic effects on cancer cells, TasQ's anti-cancer efficacy also involves its dose-dependent anti-angiogenic activity (see, e.g., Isaacs 2006, Olsson 2010, Dalrymple 2012), Isaacs 2013, Isaacs 2014, Brennen 2016). To clarify the MoA for this anti-angiogenic activity, a 3-dimensional (3D) endothelial cell sprouting assay was used. In this assay, human umbilical vein endothelial cells (HUVECs) in basal media supplemented with VEGF, EGF, FGF, IGF1 and 2% FBS in standard 2D cultures are attached to collagen-coated beads embedded in a 3D-fibrin gel in the same growth factor-supplemented media. […] This lack of sprouting is associated with an upregulation in Mef-2c mRNA (Table 2) and protein (FIG. 38), and its target genes (Table 2) like Alpha 2 Macroglobulin (A2M). […] When the 3D-fibrin gels are further supplemented with conditioned media (CM) from human dermal fibroblasts (HDF) to provide additional angiogenic factors typically present within the TME A2M (Nakatsu et al. Microvasc Res 66, 102-112 (2003)), expression of the MEF-2c target genes, including A2M, is blocked (Table 2); enabling endothelial cell proliferation and invasion into the gels (i.e., “sprouting”); eventually forming canalized and anastomosing neovascular tubes within 7 days (FIG. 37). Importantly, 3D-sprouting occurs (FIG. 37), even when HIF-1α expression is KD in the HUVEC cells (FIG. 39).

A value given as a limit tells only on which side of the number the result lay.

In the case of `COc1cccc2c1c(O)c(C(=O)N(c1ccc(C(F)(F)F)cc1)C1CCCCC1)c(=O)n2C` [ESATA-20], the 50% inhibitory concentration (IC50) in experiment [1] was < 10 µM.

In the experiment with HUVEC, `COc1cccc2c1c(O)c(C(=O)N(C)c1ccc(C(F)(F)F)cc1)c(=O)n2C` [TasQ, Tasquinimod] yielded an A2M Gene Expression (FPKM), Mef-2c Target Gene of 257 FPKM; an Adamt59 Gene Expression (FPKM), Mef-2c Target Gene of 89.2 FPKM; an Apinr Gene Expression (FPKM), Mef-2c Target Gene of 81.1 FPKM; an Ets1 Gene Expression (FPKM) of 73 FPKM. For the same compound, in the experiment on HUVEC, the Ets2 Gene Expression (FPKM) amounted to 45.2 FPKM; the KDR (VEGFR2) Gene Expression (FPKM), Ets Target Gene is 99.3 FPKM; the “LI1 (VEGFR1) Gene Expression (FPKM), Ets Target Gene” value was 106,830 FPKM; the “Mef-2c Target Gene Expression, Gene Expression (FPKM)” value is 21,217 FPKM. Further, in the experiment on HUVEC, the “NR4A1 Gene Expression (FPKM), Mef-2c Target Gene” value is reported as 1,598 FPKM; the “NR4A2 Gene Expression (FPKM), Mef-2c Target Gene” value was 297 FPKM; the “SerpinB1 Gene Expression (FPKM), Mef-2c Target Gene” value is on record as 4,926 FPKM; the “Spry Gene Expression (FPKM), Mef-2c Target Gene” value is reported as 11,728 FPKM. Besides, the “Stc1 Gene Expression (FPKM), Mef-2c Target Gene” value in the experiment on HUVEC is 18,619 FPKM.

The values are drawn from patent US20250059139A1, “COMPOUNDS FOR TREATMENT OF CANCER” (THE JOHNS HOPKINS UNIVERSITY, priority 2021, published 2025).
